Test [1] has as its system human ovarian cancer cell line A2780. Kind of test: Cell growth assay (crystal violet dye), A2780 cells. The test is classed as cell-based. The note with it: 72 hrs exposure, read-out: IC50 (cell growth inhibition). The protocol: (§1) The human ovarian cancer cell line A2780 and a platinum-resistant subline selected in vitro by stepwise increases of cisplatin concentration in the medium were from University of Modena and Reggio Emilia. The cisplatin resistant A2780 cells were challenged weekly with 50 uM cisplatin for 1 hr. Both cell lines were maintained in RPMI 1640 medium with 10% (vol/vol) fetal calf serum, penicillin (62.9 mg/L), and streptomycin (100 mg/L) (GIBCO).
(§2) Cell growth assay. Cell growth was determined by a modification of the crystal violet dye assay (Analytical biochemistry, 182, 16 1989). On selected days, after removal of the tissue culture medium, the cell monolayer was fixed with methanol prior to staining with 0.2% crystal violet solution in 20% methanol for at least 30 minutes. After washing several times with distilled water to remove the dye excess, the cells were let to dry. The incorporated dye was solubilized in acidic isopropanol (1N HCl : 2-propanol, 1:10). After appropriate dilution, dye was determined spectrophotometrically at 540 nm. The extracted dye was proportional to cell number. Percentage of cytotoxicity was calculated by comparing the absorbance of cultures exposed to the compounds of the invention to non-exposed (control) cultures. Percentage of cytotoxicity is here reported as the half maximal inhibitory concentration (IC50), which is a measure of the effectiveness of a compound of the invention in inhibiting cell growth by half with respect to control (100%).

Test [2] deals with cisplatin resistant A2780 cells (A2780/CP). Kind of test: Cell growth assay (crystal violet dye), A2780/CP cells. Format: cell-based, human. The note with it: 72 hrs exposure, read-out: IC50 (cell growth inhibition). How it is done:
as §1, §2

In test [3] the test system is 2008 cell line (serous cystadenocarcinoma of the ovary). Kind of test: Cell growth assay (crystal violet dye), 2008 cells. The test is classed as cell-based, human. The note with it: read-out: IC50 (cell growth inhibition). The protocol: (§3) For the determination of the in vitro antitumour activities, the compounds of the invention were assayed in a panel of sensible, resistant and refractary tumour cell lines, which are only exemplary for the antitumour activity of the inventive compounds, and are not to be construed as limiting their antitumour activities only to the cell lines set forth herein. Cell lines. The 2008 cell line was established from a patient with serous cystadenocarcinoma of the ovary and the cDDP-resistant C13* subline, about 15-fold resistant to cDDP, was derived from the parent 2008 cell line by monthly exposure to cDDP, followed by chronic exposure to step-wise increases in cDDP concentration (Cancer Research 52, 1895, 1992). The cell lines were grown as monolayers in RPMI 1640 medium containing 10% heat-inactivated fetal bovine serum and 50 μg/mL gentamycin sulfate. All cell media and serum were purchased from (Lonza, Verviers, Belgium). Cultures were equilibrated with humidified 5% CO2 in air at 37° C. All studies were performed in Mycoplasma negative cells, as routinely determined with the MycoAlert Mycoplasma detection kit (Lonza, Walkersville, Md., USA).
as §2

In test [4] the test system is cDDP-resistant C13* subline. The test is described as follows: Cell growth assay (crystal violet dye), C13* cells. Format: cell-based, human. The note with it: read-out: IC50 (cell growth inhibition). How it is done:
as §3, §2

Test [5] deals with HCT 116 colon carcinoma cell line. Kind of test: Cell proliferation MTT assay, HCT 116. Format: cell-based. The note with it: Homo sapiens, HCT-116, 24 h, read-out: MTT cell proliferation, percentage compared to control cells considered as 100%; for activity at 10 µM: HCT 116, compound at 10 uM; for activity at 1 µM: HCT 116, compound at 1 uM, 24 h exposure. The protocol:
(§4) Cell cultures and treatments. Human tumor cells (HeLa from uterin cervix and HCT116 from colon carcinoma) were grown at 37° C. in humidified atmosphere containing 5% CO2 in D-MEM supplemented with 10% FCS, 4 mM glutamine, 2 mM Na pyruvate, 100 U/mL penicillin and 0.1 mg/mL streptomycin (all reagents were from Celbio, Pero, Italy). HeLa cells are the most widely used human tumor cell line; HCT 116 colon carcinoma cell line has proven to be extremely resistant to conventional chemotherapy. Cells were treated with the compounds of the invention at a fixed dose of 10 uM for 24 h, eventually followed by 24 of recovery in drug free medium. As a positive control of growth inhibition, cells were treated with 10 uM etoposide. Some of the inventive were also assayed at a dose of 1 uM.
(§5) Cell proliferation assays—MTT assay. Cells are seeded in 96 multiwell-plates at the density of 10^3/100 μl (except fibroblasts that are seeded at the density of 1.5×10^3/100 μl). Cells are treated 24 h later with the drug for 24 h eventually followed by 24 h of recovery in drug-free medium. At the end of the treatments, 20 μl of CellTiter 96 Non-Radioactive Cell Proliferation Assay (MTT; Promega, Milano, Italy) are added to each well. Plates are then incubated for 4 h at 37° C. in the dark and analyzed with a reader of microplates (Gio. De Vita, Roma, Italy) at 492 nm. Experiments are performed in quadruplicate and repeated three times. Data are expressed in the following Tables 2a-c as the percentage compared to control cells considered as 100%.
On the technique in general: Formazan colour is commonly taken as a measure of viable cells.

A further test concerns HeLa cells. Kind of test: Cell proliferation MTT assay, HeLa. The test is classed as cell-based. The note with it: Homo sapiens, 24 h, read-out: MTT cell proliferation, percentage compared to control cells considered as 100%; for activity at 1 µM: compound at 1 uM; for activity at 10 µM: compound at 10 uM. How it is done:
as §4, §5

Where [6] appears, read: Homo sapiens, 2008 cells, 72 hrs exposure.
Setting [7] is: Homo sapiens, C13* cells, 72 hrs exposure.
Where [8] appears, read: 24 h + 24 h recovery in drug-free medium.

Like-named read-outs stand apart in the source and are kept apart here.

As usually defined, the IC50 is the point on the concentration scale where inhibition reaches its midpoint. `COc1ccc2c(CC(=O)n3ccc4cc(Cl)ccc43)c3[n+](cc2c1OC)CCc1cc2c(cc1-3)OCO2` [NAX030, 13-[(5-chloroindol-1-yl)carbonylmethyl]-9,10-dimethoxy-5,6-dihydrobenzo[g]-1,3-benzodioxolo[5,6-a]quinolizinium iodide]: the IC50 in test [1] (Homo sapiens) is 4500 nM; in test [2] (Homo sapiens, A2780C/P) it was 2500 nM.

With `COc1ccc2c(CCc3ccc(Cl)cc3)c3[n+](cc2c1OC)CCc1cc2c(cc1-3)OCO2` [NAX014, 13-[2-(4-chlorophenyl)ethyl]-9,10-dimethoxy-5,6-dihydrobenzo[g]-1,3-benzodioxolo[5,6-a]quinolizinium iodide], the IC50 is 5800 nM in test [3] (setting [6]); 1400 nM in test [1] (Homo sapiens); 1800 nM in test [4] (setting [7]); 1000 nM in test [2] (Homo sapiens, A2780C/P). Also, the activity at 10 µM in test [5] (setting [8]) is 15.4%; in test [5] (24 h) it was 49.5%; with HeLa cells (setting [8]), 45.4%; in the test on HeLa cells, 71.9%. The activity at 1 µM in the test with HeLa cells (setting [8]) was found to be 59.4%; in the test with HeLa cells, 92.1%.

As for `COc1ccc2c(CCC(c3ccccc3)c3ccccc3)c3[n+](cc2c1OC)CCc1cc2c(cc1-3)OCO2` [NAX018, 13-(3,3-diphenylpropyl)-9,10-dimethoxy-5,6-dihydrobenzo[g]-1,3-benzodioxolo[5,6-a]quinolizinium iodide], the IC50 came to 4000 nM in test [3] (setting [6]); 400 nM in test [1] (Homo sapiens); 660 nM in test [4] (setting [7]); 1000 nM in test [2] (Homo sapiens, A2780C/P). Besides, the activity at 1 µM in test [5] worked out at 68.2%; in the test on HeLa cells (setting [8]), 45.8%; with HeLa cells, 64%. The activity at 10 µM in test [5] (setting [8]) was 13.7%; in test [5] (24 h), 30.6%; in the test with HeLa cells (setting [8]), 11.3%; with HeLa cells, 40.6%.

Turning to `O=c1[nH]cc(F)c(=O)[nH]1` [5-FU, 5-fluoro-2,4(1H,3H)-pyrimidinedione, reference compound], the half-inhibitory concentration (IC50) was found to be 10000 nM in test [3] (setting [6]) and 8000 nM in test [4] (setting [7]).

On to `N.N.[Cl][Pt][Cl]` [cDDP, cis-diaminedichloroplatinum, reference compound], for which the IC50 was 3600 nM in test [3] (2008 cells, 72 hrs exposure); 2000 nM in test [1]; 17000 nM in test [4] (C13* cells, 72 hrs exposure); 20000 nM in test [2].

As to `COc1cc([C@@H]2c3cc4c(cc3[C@@H](O[C@@H]3O[C@@H]5CO[C@@H](C)O[C@H]5[C@H](O)[C@H]3O)[C@H]3COC(=O)[C@H]23)OCO4)cc(OC)c1O` [Etoposide, 4′-demethylepipodophyllotoxin 9-[4,6-O-ethylidene-beta-D-glucopyranoside], reference compound], the activity at 1 µM stood at 139% in test [5], 59.5% in the test on HeLa cells (setting [8]) and 94.3% with HeLa cells. Further, the activity at 10 µM turned out to be 96.2% in test [5] (setting [8]), 104% in test [5] (24 h), 1% with HeLa cells (setting [8]) and 74.8% in the test on HeLa cells.

For the molecule `COc1ccc(CCc2c3[n+](cc4c(OC)c(OC)ccc24)CCc2cc4c(cc2-3)OCO4)cc1` [NAX013, 13-[2-(4-methoxyphenyl)ethyl]-9,10-dimethoxy-5,6-dihydrobenzo[g]-1,3-benzodioxolo[5,6-a]quinolizinium iodide], the IC50 in test [3] (setting [6]) is 6600 nM; in test [1] (Homo sapiens), 1000 nM; in test [4] (setting [7]) it was 2400 nM; in test [2] (Homo sapiens, A2780C/P), 1000 nM. For the same molecule, the activity at 1 µM in test [5] was 58.1%. Besides, the activity at 10 µM in test [5] (setting [8]) was 60.2%; in test [5] (24 h) it was 10%; in the test with HeLa cells (setting [8]), 60.8%; in the test with HeLa cells, 74.5%.

As for `COc1ccc2cc3[n+](cc2c1OC)CCc1cc2c(cc1-3)OCO2` [Berberine, 9,10-dimethoxy-5,6-dihydrobenzo[g]-1,3-benzodioxolo[5,6-a]quinolizinium chloride, reference compound], the IC50 in test [3] (Homo sapiens, 72 h) came to 10000 nM; in test [1] (Homo sapiens) it was 4000 nM; in test [4] (Homo sapiens, C13, 72 h), 6000 nM; in test [2] (Homo sapiens, A2780C/P), 2500 nM. Moreover, the results for the activity at 1 µM (in test [5]; with HeLa cells (setting [8]); with HeLa cells) were 201%, 168% and 178%, respectively. For the same molecule, the activity at 10 µM came to 93.3% in test [5] (setting [8]), 166% in test [5] (24 h), 92.9% in the test with HeLa cells (setting [8]) and 121% with HeLa cells.

For the molecule `COc1ccc2c(CCCc3ccccc3)c3[n+](cc2c1OC)CCc1cc2c(cc1-3)OCO2` [NAX012, 13-(3-phenylpropyl)-9,10-dimethoxy-5,6-dihydrobenzo[g]-1,3-benzodioxolo[5,6-a]quinolizinium iodide], the half-maximal inhibitory concentration (IC50) was determined as 3600 nM in test [3] (setting [6]); 600 nM in test [1] (Homo sapiens); 2200 nM in test [4] (setting [7]); 600 nM in test [2] (Homo sapiens, A2780C/P). The activity at 1 µM in test [5] came out at 52.1%. In addition, the activity at 10 µM in test [5] (setting [8]) is 34.8%; in test [5] (24 h), 0%; with HeLa cells (setting [8]), 41.3%; in the test with HeLa cells, 72.4%.

Regarding `COc1ccc2c(CCc3c[nH]c4ccccc34)c3[n+](cc2c1OC)CCc1cc2c(cc1-3)OCO2` [NAX019, 13-[2-(indol-3-yl)ethyl]-9,10-dimethoxy-5,6-dihydrobenzo[g]-1,3-benzodioxolo[5,6-a]quinolizinium iodide], the activity at 10 µM was determined as 32.1% in test [5] (setting [8]), 6% in test [5] (24 h), 33.5% in the test on HeLa cells (setting [8]) and 62.8% with HeLa cells.

(Values after US8188109B2, “Benzoquinolizinium salt derivatives as anticancer agents” (Naxospharma S.r.l., priority 2009, dated 2012).)
